PubChem BioAssay AID608 (Sanford-Burnham Center for Chemical Genomics, 2007)
Activity calls are given as the source filed them. No rule for the calls is given here.

What follows are compounds tested against Peptidyl-prolyl cis-trans isomerase FKBP1A (Homo sapiens) (UniProt P62942) (assay: FKBP12 binders, biophysical, NMR detection (AID 608)). Conditions: NMR binding, purified FKBP12.
Sequence of Peptidyl-prolyl cis-trans isomerase FKBP1A (Homo sapiens) (P62942 whole entry, looked up): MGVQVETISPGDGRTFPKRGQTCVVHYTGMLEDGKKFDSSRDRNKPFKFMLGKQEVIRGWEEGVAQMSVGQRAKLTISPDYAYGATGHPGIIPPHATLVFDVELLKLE

SMILES | Kd
COc1ccc(C(N)=O)cc1NC(C)=O | > 4 mM (inactive)
COc1ccc2c(c1)OCC(Cc1ccc(OC)c(OC(C)=O)c1)C2=O (stereo not drawn) | > 4 mM (inactive)
O=c1c(O)c(-c2ccccc2)oc2cc(O)ccc12 | > 4 mM (inactive)
COC(=O)N1CCN(c2ccc(OC)cc2)CC1 | > 4 mM (inactive)
COC(=O)c1cccc(N)c1 | > 4 mM (inactive)
CCOC(=O)C1CCN(c2ncnc3nc[nH]c23)CC1 | > 4 mM (inactive)
O=C(O)C1CCN(S(=O)(=O)c2cccs2)CC1 | > 4 mM (inactive)
CC(=O)Nc1cc2c(cc1C(=O)C(C)C)OCCO2 | > 4 mM (inactive)
CC(=O)N/N=C(\C)c1cccc(N)c1 | > 4 mM (inactive)
NC(=O)CC1NC(=O)c2ccccc21 (stereo not drawn) | > 4 mM (inactive)
O=C(CN1C(=O)c2cccc3cccc(c23)C1=O)NO | > 4 mM (inactive)
C/C=C(\C)c1nnc(NC(=O)c2ccco2)s1 | > 4 mM (inactive)
O=C(c1ccco1)N1CCN(Cc2cccc(F)c2)CC1 | > 4 mM (inactive)
O=C(NCCO)NC(=S)c1ccccc1 | > 4 mM (inactive)
Cc1cc2nc(SCC(=O)O)nc(C)c2cc1C | > 4 mM (inactive)
Cc1ccc(-c2ccc(OCC(=O)N3CCOCC3)cc2)cc1 | inactive
O=C1NC(=S)N/C1=C\c1ccccc1F | > 4 mM (inactive)
Cc1ccc2cc(CO)ccc2n1 | > 4 mM (inactive)
O=S1(=O)C=CC(N2CCCCC2)C1 (stereo not drawn) | > 4 mM (inactive)
CC(=O)Nc1c(C#N)c(C(C)(C)C)cn1C | > 4 mM (inactive)
O=C(O)/C=C/C=C/c1ccccc1 | > 4 mM (inactive)
O=c1cccc2n1C[C@H]1CNCC2C1 | > 4 mM (inactive)
CCOC(=O)c1csc(N)n1 | > 4 mM (inactive)
COc1c2ccccc2nc2occc12 | > 4 mM (inactive)
CC(=O)Nc1ccc2c(C)cc(=O)[nH]c2c1 | > 4 mM (inactive)
O=C(O)c1ccc2nsnc2c1 | > 4 mM (inactive)

SMILES | Kd
CC(C)=CC(=O)Nc1ccc2c(c1)OCO2 | > 4 mM (inactive)
CSc1nn(-c2ccccc2)c(N)c1C#N | > 4 mM (inactive)
Nc1nnc(SCc2ccc3c(c2)OCO3)s1 | > 4 mM (inactive)
CC(C)[C@@H]1CC[C@@H](C)CC1=O | > 4 mM (inactive)
COc1ccccc1-c1nc(-c2ccc(C)nc2OC)no1 | > 4 mM (inactive)
Cc1cc(C(=O)c2c(C)nn(C)c2Cl)n(C)n1 | > 4 mM (inactive)
O=C(NN1CCOCC1)c1ccccc1F | > 4 mM (inactive)
CSc1nc(C)c(Oc2ccccc2)c(=O)n1C | > 4 mM (inactive)
COc1c2occc2cc2ccc(=O)oc12 | > 4 mM (inactive)
C=C(C)[C@H]1CC=C(C(=O)O)CC1 | > 4 mM (inactive)
COc1ccccc1NC(=O)c1ccc(Br)o1 | > 4 mM (inactive)
COC(=O)C1COCCN1C(=O)C(F)(F)Sc1ccc(C(C)C)cc1 (stereo not drawn) | 0.19 mM
Cc1ccccc1NC(=O)CC1SC(N)=NC1=O (stereo not drawn) | > 4 mM (inactive)
O=C1c2ccncc2C(=O)N1CNc1ccccn1 | > 4 mM (inactive)
O=C(c1ccncc1)N1CCN(C(=O)c2ccco2)CC1 | > 4 mM (inactive)
Cc1cccc(-n2c(N)cc(=O)[nH]c2=S)c1 | > 4 mM (inactive)
Nc1ncnc(Cl)c1[N+](=O)[O-] | > 4 mM (inactive)
O=C(c1cc(Cl)cc(Cl)c1)N1CCOCC1 | > 4 mM (inactive)
CNC(=S)Nc1ccc(C(=O)O)cc1 | > 4 mM (inactive)
O=C(O)CCCc1nc2ccccc2s1 | > 4 mM (inactive)
O=C(NCCO)c1cc2ccccc2cc1O | > 4 mM (inactive)
Cc1ccc2cc(N)ccc2n1 | > 4 mM (inactive)
O=C1C2CC=CCC2C(=O)N1c1ccccc1O (stereo not drawn) | > 4 mM (inactive)
Cc1ccn(S(=O)(=O)c2ccc(F)cc2)n1 | > 4 mM (inactive)
C/C1=C/CC(C)(C)/C=C/C/C(C)=C/CC1 | > 4 mM (inactive)
Cc1sc2nc(SC3CCOC3=O)[nH]c(=O)c2c1C (stereo not drawn) | > 4 mM (inactive)

SMILES | Kd
Cc1cc(C)n2nc(C(=O)Nc3cccnc3)nc2n1 | > 4 mM (inactive)
COc1ccc2c(=O)c(OC)c(-c3ccccc3)oc2c1 | > 4 mM (inactive)
COC(=O)CCSCC(=O)Nc1nnc(C)s1 | > 4 mM (inactive)
Cc1ccc(C(=O)Nc2nnc(-c3ccncc3)s2)o1 | > 4 mM (inactive)
Cc1ccc(NC(=O)CC2NCCNC2=O)c(C)c1 (stereo not drawn) | > 4 mM (inactive)
Nc1ccc(F)cc1F | > 4 mM (inactive)
CCn1ncc(Cl)c1C(=O)Nc1ccncc1 | > 4 mM (inactive)
NC(=O)c1sc2ccccc2c1Cl | > 4 mM (inactive)
NNc1ncnc2sccc12 | > 4 mM (inactive)
Nc1cccc(S(=O)(=O)N2CCOCC2)c1 | > 4 mM (inactive)
Cn1cnnc1SCC(=O)Nc1ccccc1 | > 4 mM (inactive)
O=C(Nc1ccon1)c1ccc2c(c1)OCO2 | > 4 mM (inactive)
Cc1nn2c(nc1=O)SCC2(O)c1ccccc1 (stereo not drawn) | > 4 mM (inactive)
COc1c2ccoc2cc2oc(C)cc(=O)c12 | > 4 mM (inactive)
Nc1nnc(SCc2ccccc2Cl)s1 | > 4 mM (inactive)
Cc1ccc(NC(=O)C2CCCNC2=O)nc1 (stereo not drawn) | > 4 mM (inactive)
Nc1nc2ccc(S(N)(=O)=O)cc2s1 | > 4 mM (inactive)
Cc1cc(=O)n(CC(C)C)c(O)c1C#N | > 4 mM (inactive)
O=C(O)c1csc(-c2ccccc2)n1 | > 4 mM (inactive)
NC(=O)CSc1nnnn1-c1ccccc1 | > 4 mM (inactive)
O=C1c2ccccc2C(=O)c2c(O)c(O)cc(O)c21 | > 4 mM (inactive)
CC(=O)Nc1cc(O)cc(O)c1 | > 4 mM (inactive)
CC(C)=CCC1=C(O)c2ccccc2C(=O)C1=O | > 4 mM (inactive)
COc1c2ccoc2cc2oc(=O)ccc12 | > 4 mM (inactive)
COCC(=O)NC1CC(C)(C)NC(C)(C)C1 | > 4 mM (inactive)
CCSc1nc(=S)n(CC)c(C)c1C(C)=O | > 4 mM (inactive)

SMILES | Kd
NS(=O)(=O)c1ccccc1Cl | > 4 mM (inactive)
CC(=O)OC[C@H]1O[C@@H](Oc2cc(OC(C)=O)c3c(=O)cc(-c4ccc(OC(C)=O)cc4)oc3c2)[C@H](OC(C)=O)[C@@H](OC(C)=O)[C@@H]1OC(C)=O | > 4 mM (inactive)
O=C1NC(=O)C(C2SC(=O)NC2=O)S1 (stereo not drawn) | > 4 mM (inactive)
CCOC12NC(=O)CC(=O)N1C(c1ccccc1)=CS2 (stereo not drawn) | > 4 mM (inactive)
CC1(C)CC(=O)c2cnn(-c3nc4ccccc4[nH]3)c2C1 | 0.491 mM
NC(=O)CCN1C(=O)c2ccccc2C1=O | > 4 mM (inactive)
CCN1C(=O)c2cccc3c(S(N)(=O)=O)ccc1c23 | > 4 mM (inactive)
CP(C)(=O)CCC(=O)O | > 4 mM (inactive)
Cc1ccc(SCc2nc(-c3cccnc3)no2)cc1 | > 4 mM (inactive)
Cc1ccc(C(=O)CS(C)(=O)=O)cc1 | > 4 mM (inactive)
Cc1ccc(OCC(=O)N2CC(C)OC(C)C2)cc1C (stereo not drawn) | > 4 mM (inactive)
Nc1nc(NCc2ccco2)nn1-c1ccccc1 | > 4 mM (inactive)
COc1cc2c(cc1OC)C1=C(C#N)CCC(=O)N1CC2 | > 4 mM (inactive)
CC(=O)Nc1ccc(S(=O)(=O)N(C)C)cc1 | > 4 mM (inactive)
CSc1ccccc1NC(=O)c1c(C)noc1C | > 4 mM (inactive)
S=C(c1ccc(N2CCOCC2)cc1)N1CCOCC1 | > 4 mM (inactive)
Nc1ccc(S(=O)(=O)Nc2ccc(F)cc2F)cc1 | > 4 mM (inactive)
Cc1cc(=O)[nH]c(N)n1 | > 4 mM (inactive)
CC(C)c1ccc(NC(=O)C(N)=O)cc1 | > 4 mM (inactive)
C/C(O)=c1/sc2cc(C)nc(=N)n2c1=O | > 4 mM (inactive)
CC(C)=CC(=O)Nc1ccccc1Br | > 4 mM (inactive)
CN(C)CCNC(CC(=O)Nc1ccccc1)C(=O)O (stereo not drawn) | > 4 mM (inactive)
Cc1nnc(NCCN2CCOCC2)[nH]c1=O | > 4 mM (inactive)
O=C(c1ncc[nH]1)c1ccccc1C(=O)N1CCOCC1 | > 4 mM (inactive)
O=C(c1sc2cccc(Cl)c2c1Cl)N1CCOCC1 | inactive
COC(=O)CSc1ncnc2c(C)csc12 | > 4 mM (inactive)

SMILES | Kd
Cc1nn(-c2ccccc2)nc1CO | > 4 mM (inactive)
NC(=O)CN1CCCCCC1=O | > 4 mM (inactive)
CC(=O)Oc1cccc2ccc(=O)[nH]c12 | > 4 mM (inactive)
CC(C)Nc1ncnc2c1nnn2C | > 4 mM (inactive)
COc1ccc(N2C(=O)CCC2=O)c(OC)c1 | > 4 mM (inactive)
Cc1cc(C)n(CCC(=O)O)n1 | > 4 mM (inactive)
Cc1c(C(=O)NC2=NCCS2)oc2ccccc12 | > 4 mM (inactive)
NCc1ccc2c(c1)OCO2 | > 4 mM (inactive)
OCc1ccc(-n2cccn2)cc1 | > 4 mM (inactive)
CN1CCC(N2CCN(C)CC2)CC1 | > 4 mM (inactive)
CCC(=O)Nc1ccc(-c2nn3c(C)nnc3s2)cc1 | > 4 mM (inactive)
Cc1ccnc(NS(=O)(=O)c2ccccc2)n1 | > 4 mM (inactive)
CCS(=O)(=O)N1CCN(c2ccccc2F)CC1 | > 4 mM (inactive)
Nc1ccc(OC(F)(F)F)cc1 | > 4 mM (inactive)
O=C(Nc1ccon1)c1sc2cc(F)ccc2c1Cl | > 4 mM (inactive)
O=C(O)CCC(=O)c1c[nH]c2ccccc12 | > 4 mM (inactive)
O=C(O)/C=C(\CC(=O)O)C(=O)O | > 4 mM (inactive)
O=C1NC(=S)N/C1=C/c1ccc(O)c(Cl)c1 | > 4 mM (inactive)
O=C1C=CC(=O)N1c1ccccc1O | > 4 mM (inactive)
COc1ccc(-c2coc3cc(OC(C)=O)cc(OC(C)=O)c3c2=O)cc1 | > 4 mM (inactive)
CC(=O)c1cc(CN2C(=O)c3ccccc3C2=O)cs1 | > 4 mM (inactive)
CN(C)C1CCS(=O)(=O)C1 (stereo not drawn) | > 4 mM (inactive)
C/C=C/COc1nc2c(c(=O)n(C)c(=O)n2C)n1C | > 4 mM (inactive)
O=C(NC12CC3CC(CC(C3)C1)C2)c1cnccn1 | > 4 mM (inactive)
